Assay results as given in patent US9901538B2, “Personal care composition containing yeast/polyphenol ferment extract” (priority 2008, dated 2018).

Tested on: Pichia pastoris
Assay: 2-Dimensional gel electrophoresis of yeast protein expression
Format: cell-based
Conditions: 2D gel, 626 spots analyzed, FIG. 2 and 3
Method: To identify the metabolic changes in the yeast because of the polyphenol feed-strategy, 2-Dimensional gel electrophoreses and gene microarray analysis was conducted on the control, (i.e., a yeast extract without resveratrol growth factor), and a yeast-resveratrol ferment extract produced by the process of the present invention. The first dimension IEF focuses on separation of the proteins based on their isoelectric points and was conducted using the EttanIPGphor system with a manifold for protein loading. The 2nd dimension SDS-PAGE is an electrophoretic method for separating polypeptides according to their molecular weights using the DALT VI Electrophoresis Unit (GE-Amersham, Piscataway N.J.) (2, 6). To remove interfering substances and impurities, the yeast cell extracts were purified using the 2D Clean-up kit provided by GE Amersham. Each purified yeast sample was rehydrated overnight with Thiourea rehydration solution (7M Urea and 2M Thiourea, 2% Chaps, 0.5% Pharmalyte). The rehydrated samples were loaded onto the 1st dimension IEF. […]
FIG. 3 illustrates the laser densitometer comparison of the control versus the yeast/resveratrol of the invention. Reference spot numbering, pI, and MW are given for changing polypeptide spots and analyzed in the samples. […] A total of 626 spots were analyzed.

Oc1ccc(/C=C/c2cc(O)cc(O)c2)cc1 [resveratrol, 3,4,5-transhydroxystilbene]
proteomic changes of the yeast versus untreated control: significant proteomic changes
